In PMC5218480 (PLoS ONE, 2017):

Test system: MV-4-11 cells
Assay: Gene expression microarray analysis (Affymetrix PrimeView) and GSEA
Format: cell-based, human
Design: RFU PODN (11730768_x_at) / Fold change /veh PODN (11730768_x_at) / RFU LINC00158 (11744669_a_at) / Fold change /veh LINC00158 (11744669_a_at) / RFU DUSP10 (11751237_a_at) / Fold change /veh DUSP10 (11751237_a_at) / RFU ID3 (11757404_x_at) / Fold change /veh ID3 (11757404_x_at) / RFU PLEKHG5 (11737974_s_at) / Fold change /veh PLEKHG5 (11737974_s_at) / RFU LRRC4B (11730491_at) / Fold change /veh LRRC4B (11730491_at) / RFU GIMAP4 (11747438_a_at) / Fold change /veh GIMAP4 (11747438_a_at) / RFU KRT8 (11758183_x_at) / Fold change /veh KRT8 (11758183_x_at) / RFU CNN1 (11734310_a_at) / Fold change /veh CNN1 (11734310_a_at) / RFU VPS37D (11726825_at) / Fold change /veh VPS37D (11726825_at) / RFU C10orf10 (11716522_x_at) / Fold change /veh C10orf10 (11716522_x_at) / RFU KIR2DL2 /// KIR2DL4 /// KIR2DL5A /// KIR2DL5B /// KIR2DS1 /// KIR2DS2 /// KIR2DS3 /// KIR2DS4 /// KIR3DL3 /// KIR3DL3 /// KIR3DS1 (11738374_at) / Fold change /veh KIR2DL2 /// KIR2DL4 /// KIR2DL5A /// KIR2DL5B /// KIR2DS1 /// KIR2DS2 /// KIR2DS3 /// KIR2DS4 /// KIR3DL3 /// KIR3DL3 /// KIR3DS1 (11738374_at) / RFU C1QL1 (11718748_at) / Fold change /veh C1QL1 (11718748_at) / RFU TMPRSS4 (11747572_a_at) / Fold change /veh TMPRSS4 (11747572_a_at) / RFU HAMP (11756126_x_at) / Fold change /veh HAMP (11756126_x_at) / RFU RNFT2 (11725882_a_at) / Fold change /veh RNFT2 (11725882_a_at) / RFU NR4A2 (11747474_a_at) / Fold change /veh NR4A2 (11747474_a_at) / RFU ABCC12 (11746883_a_at) / Fold change /veh ABCC12 (11746883_a_at) / RFU TMEM136 (11760407_x_at) / Fold change /veh TMEM136 (11760407_x_at) / RFU CLDN22 /// WWC2 (11732394_at) / Fold change /veh CLDN22 /// WWC2 (11732394_at) / RFU HLA-DPB1 (11760878_x_at) / Fold change /veh HLA-DPB1 (11760878_x_at) / RFU SPINT1 (11716480_a_at) / Fold change /veh SPINT1 (11716480_a_at) / RFU GAP43 (11754022_s_at) / Fold change /veh GAP43 (11754022_s_at) / RFU A4GNT (11735810_at) / Fold change /veh A4GNT (11735810_at) / RFU PRB3 (11715151_x_at) / Fold change /veh PRB3 (11715151_x_at) / RFU TUBB4B (11761932_at) / Fold change /veh TUBB4B (11761932_at) / RFU CAPN14 (11732068_a_at) / Fold change /veh CAPN14 (11732068_a_at) / RFU TMCC2 (11721928_a_at) / Fold change /veh TMCC2 (11721928_a_at) / RFU IRGQ (11745062_a_at) / Fold change /veh IRGQ (11745062_a_at) / RFU FAM174B (11720279_a_at) / Fold change /veh FAM174B (11720279_a_at) / RFU TMPRSS4 (11748680_a_at) / Fold change /veh TMPRSS4 (11748680_a_at) / RFU FAM212B (11763350_a_at) / Fold change /veh FAM212B (11763350_a_at) / RFU PLEKHG5 (11743358_a_at) / Fold change /veh PLEKHG5 (11743358_a_at) / RFU ZSCAN30 (11745921_a_at) / Fold change /veh ZSCAN30 (11745921_a_at) / RFU CMKLR1 (11741424_a_at) / Fold change /veh CMKLR1 (11741424_a_at) / RFU LOC101060620 /// MAPK8IP1 (11723275_at) / Fold change /veh LOC101060620 /// MAPK8IP1 (11723275_at) / RFU SPTSSB (11747773_x_at) / Fold change /veh SPTSSB (11747773_x_at) / RFU PRSS12 (11739890_at) / Fold change /veh PRSS12 (11739890_at) / RFU BIN1 (11741810_x_at) / Fold change /veh BIN1 (11741810_x_at) / RFU WNT11 (11732464_a_at) / Fold change /veh WNT11 (11732464_a_at) / RFU C10orf10 (11716521_a_at) / Fold change /veh C10orf10 (11716521_a_at) / RFU C5orf56 (11738089_at) / Fold change /veh C5orf56 (11738089_at) / RFU CYB561 (11721691_x_at) / Fold change /veh CYB561 (11721691_x_at) / RFU ANKRD19P (11752326_a_at) / Fold change /veh ANKRD19P (11752326_a_at) / RFU OR2T12 /// OR2T33 /// OR2T8 (11738714_s_at) / Fold change /veh OR2T12 /// OR2T33 /// OR2T8 (11738714_s_at) / RFU VCAN (11748164_a_at) / Fold change /veh VCAN (11748164_a_at) / RFU JSRP1 (11732532_at) / Fold change /veh JSRP1 (11732532_at) / RFU KRTAP10-11 (11738290_x_at) / Fold change /veh KRTAP10-11 (11738290_x_at) / RFU MYO3A (11730013_a_at) / Fold change /veh MYO3A (11730013_a_at) / RFU EBF3 (11725865_a_at) / Fold change /veh EBF3 (11725865_a_at) / RFU CAMK2N1 (11719241_x_at) / Fold change /veh CAMK2N1 (11719241_x_at) / RFU C5orf56 (11738088_a_at) / Fold change /veh C5orf56 (11738088_a_at) / RFU OLFML3 (11715873_a_at) / Fold change /veh OLFML3 (11715873_a_at) / RFU LOC100653217 /// NTM (11731650_a_at) / Fold change /veh LOC100653217 /// NTM (11731650_a_at) / RFU MAPK11 (11762145_a_at) / Fold change /veh MAPK11 (11762145_a_at) / RFU FIZ1 (11724087_x_at) / Fold change /veh FIZ1 (11724087_x_at) / RFU OASL (11726364_x_at) / Fold change /veh OASL (11726364_x_at) / RFU SOX15 (11748057_x_at) / Fold change /veh SOX15 (11748057_x_at) / RFU CD79A (11719716_a_at) / Fold change /veh CD79A (11719716_a_at) / RFU HIST1H1D (11736915_at) / Fold change /veh HIST1H1D (11736915_at) / RFU CASKIN2 (11723855_a_at) / Fold change /veh CASKIN2 (11723855_a_at) / RFU LOC730098 (11760151_x_at) / Fold change /veh LOC730098 (11760151_x_at) / RFU OR4N2 (11742367_at) / Fold change /veh OR4N2 (11742367_at) / RFU PRRT2 (11749266_a_at) / Fold change /veh PRRT2 (11749266_a_at) / RFU SNX32 (11753110_a_at) / Fold change /veh SNX32 (11753110_a_at) / RFU CDHR5 (11726645_a_at) / Fold change /veh CDHR5 (11726645_a_at) / RFU RCAN1 (11760418_a_at) / Fold change /veh RCAN1 (11760418_a_at) / RFU FAM167A (11723789_a_at) / Fold change /veh FAM167A (11723789_a_at) / RFU FAM26E (11764081_at) / Fold change /veh FAM26E (11764081_at) / RFU ISYNA1 (11749810_s_at) / Fold change /veh ISYNA1 (11749810_s_at) / RFU ACY1 (11761880_at) / Fold change /veh ACY1 (11761880_at) / RFU 11764098_at / Fold change /veh 11764098_at / RFU SAMD14 (11745864_x_at) / Fold change /veh SAMD14 (11745864_x_at) / RFU NPB (11741838_a_at) / Fold change /veh NPB (11741838_a_at) / RFU TMPRSS6 (11731388_a_at) / Fold change /veh TMPRSS6 (11731388_a_at) / RFU KRTAP10-2 (11738614_at) / Fold change /veh KRTAP10-2 (11738614_at) / RFU ARHGAP8 /// PRR5-ARHGAP8 (11727945_x_at) / Fold change /veh ARHGAP8 /// PRR5-ARHGAP8 (11727945_x_at) / RFU KRTAP5-7 /// NADSYN1 (11734609_at) / Fold change /veh KRTAP5-7 /// NADSYN1 (11734609_at) / RFU RASL12 (11751679_a_at) / Fold change /veh RASL12 (11751679_a_at) / RFU CDKN2B (11736163_a_at) / Fold change /veh CDKN2B (11736163_a_at) / RFU PRF1 (11729649_at) / Fold change /veh PRF1 (11729649_at) / RFU, ZNF638 /// ZNF638-IT1 / Fold change vs veh, ZNF638 /// ZNF638-IT1 / RFU, PANK3 / Fold change vs veh, PANK3 / RFU, SH3YL1 / Fold change vs veh, SH3YL1 / RFU, ZEB2 / Fold change vs veh, ZEB2 / RFU, NRIP1 / Fold change vs veh, NRIP1 / RFU, PTTG1IP / Fold change vs veh, PTTG1IP / RFU, CAPN2 / Fold change vs veh, CAPN2 / RFU, MED14 / Fold change vs veh, MED14 / RFU, SNORA58 / Fold change vs veh, SNORA58 / RFU, C1orf63 / Fold change vs veh, C1orf63 / RFU, LRRFIP1 / Fold change vs veh, LRRFIP1 / RFU, NDUFAF7 / Fold change vs veh, NDUFAF7 / RFU, SLC12A2 / Fold change vs veh, SLC12A2 / RFU, IBTK / Fold change vs veh, IBTK / RFU, ESF1 / Fold change vs veh, ESF1 / Fold change vs veh, TMEM50B / RFU, TAOK1 / Fold change vs veh, TAOK1 / RFU, ACBD3 / Fold change vs veh, ACBD3 / RFU, TMA16 / Fold change vs veh, TMA16 / RFU, RWDD3 / Fold change vs veh, RWDD3 / RFU, BCAT1 / Fold change vs veh, BCAT1 / RFU, EDEM3 / Fold change vs veh, EDEM3 / RFU, TMEM33 / Fold change vs veh, TMEM33 / RFU, WDR75 / Fold change vs veh, WDR75 / RFU, AHCTF1 / Fold change vs veh, AHCTF1 / RFU, TFRC / Fold change vs veh, TFRC / RFU, ZDHHC17 / Fold change vs veh, ZDHHC17 / RFU, NOM1 / Fold change vs veh, NOM1 / RFU, ARL8B / Fold change vs veh, ARL8B / RFU, ZBTB11 / Fold change vs veh, ZBTB11 / RFU, TAMM41 / Fold change vs veh, TAMM41 / RFU, KIAA1704 /// LOC100996395 / Fold change vs veh, KIAA1704 /// LOC100996395 / RFU, ING1 / Fold change vs veh, ING1 / RFU, TRMT61B / Fold change vs veh, TRMT61B / RFU, FUBP3 / Fold change vs veh, FUBP3 / RFU, TP53 / Fold change vs veh, TP53 / RFU, TNKS2 / Fold change vs veh, TNKS2 / RFU, ZFP14 / Fold change vs veh, ZFP14 / RFU, ACTR2 / Fold change vs veh, ACTR2 / RFU, PPP3R1 / Fold change vs veh, PPP3R1 / RFU, PIK3R1 / Fold change vs veh, PIK3R1 / RFU, HNRNPA1 / Fold change vs veh, HNRNPA1 / RFU, RNF170 / Fold change vs veh, RNF170 / RFU, ZNF28 / Fold change vs veh, ZNF28 / RFU, RNGTT / Fold change vs veh, RNGTT / RFU, OGT / Fold change vs veh, OGT / RFU, BRD1 / Fold change vs veh, BRD1 / RFU, MARS / Fold change vs veh, MARS / RFU, ZNF655 / Fold change vs veh, ZNF655 / RFU, FAHD1 / Fold change vs veh, FAHD1 / RFU, BDP1 / Fold change vs veh, BDP1 / RFU, LRRCC1 / Fold change vs veh, LRRCC1 / RFU, ARID1A / Fold change vs veh, ARID1A / RFU, ZNF146 / Fold change vs veh, ZNF146 / RFU, ZNF330 / Fold change vs veh, ZNF330 / RFU, GPN3 / Fold change vs veh, GPN3 / RFU, C9orf123 / Fold change vs veh, C9orf123 / RFU, N4BP2L2 / Fold change vs veh, N4BP2L2 / RFU, ARFIP1 / Fold change vs veh, ARFIP1 / RFU, FAM179B / Fold change vs veh, FAM179B / RFU, BCL10 / Fold change vs veh, BCL10 / RFU, UHRF1BP1L / Fold change vs veh, UHRF1BP1L / RFU, BET1 / Fold change vs veh, BET1 / RFU, CNOT2 / Fold change vs veh, CNOT2 / RFU, ZNF268 / Fold change vs veh, ZNF268 / Fold change vs veh, ZNF507 / RFU, DGCR2 / Fold change vs veh, DGCR2 / RFU, WDSUB1 / Fold change vs veh, WDSUB1 / Fold change vs veh, HSP90B1 /// MIR3652 / RFU, ADSS / Fold change vs veh, ADSS / RFU, GK / Fold change vs veh, GK / RFU, ZNF148 / Fold change vs veh, ZNF148 / RFU, TAF9 / Fold change vs veh, TAF9 / RFU, SLC1A5 / Fold change vs veh, SLC1A5 / RFU, SLMO2 / Fold change vs veh, SLMO2 / RFU, ABCC4 / Fold change vs veh, ABCC4 / RFU, LOC101060439 /// RAP1B / Fold change vs veh, LOC101060439 /// RAP1B / RFU, RFX7 / Fold change vs veh, RFX7 / RFU, GTPBP10 / Fold change vs veh, GTPBP10 / RFU, CNEP1R1 / Fold change vs veh, CNEP1R1 / RFU, BIVM-ERCC5 /// ERCC5 / Fold change vs veh, BIVM-ERCC5 /// ERCC5 / RFU, ILF3 / Fold change vs veh, ILF3 / RFU 11762660_at / Fold change /veh 11762660_at / RFU VCAN (11757783_s_at) / Fold change /veh VCAN (11757783_s_at) / RFU DDX43 (11728927_at) / Fold change /veh DDX43 (11728927_at) / RFU KRT8 (11758188_x_at) / Fold change /veh KRT8 (11758188_x_at) / RFU NKD1 (11759106_at) / Fold change /veh NKD1 (11759106_at) / RFU SRD5A1 (11742802_a_at) / Fold change /veh SRD5A1 (11742802_a_at) / RFU TPSAB1 /// TPSB2 (11721975_s_at) / Fold change /veh TPSAB1 /// TPSB2 (11721975_s_at) / RFU GSTM3 (11746129_a_at) / Fold change /veh GSTM3 (11746129_a_at) / RFU IL23R (11737362_x_at) / Fold change /veh IL23R (11737362_x_at) / RFU TMEM51 (11727254_a_at) / Fold change /veh TMEM51 (11727254_a_at) / RFU PIWIL2 (11732686_x_at) / Fold change /veh PIWIL2 (11732686_x_at) / RFU ORM1 (11744905_x_at) / Fold change /veh ORM1 (11744905_x_at) / RFU CCDC152 (11743942_at) / Fold change /veh CCDC152 (11743942_at) / RFU ECM1 (11717891_a_at) / Fold change /veh ECM1 (11717891_a_at) / RFU IL23R (11748794_a_at) / Fold change /veh IL23R (11748794_a_at) / RFU TNFAIP8L3 (11732012_x_at) / Fold change /veh TNFAIP8L3 (11732012_x_at) / RFU MBOAT4 (11741988_at) / Fold change /veh MBOAT4 (11741988_at) / RFU 11764193_at / Fold change /veh 11764193_at / RFU TMEM53 (11763286_at) / Fold change /veh TMEM53 (11763286_at) / RFU MAGEB2 (11727129_at) / Fold change /veh MAGEB2 (11727129_at) / RFU TMEM200A (11744735_a_at) / Fold change /veh TMEM200A (11744735_a_at) / RFU CCDC152 (11751479_a_at) / Fold change /veh CCDC152 (11751479_a_at) / RFU FAM211A (11726209_a_at) / Fold change /veh FAM211A (11726209_a_at) / RFU RGS16 (11746705_a_at) / Fold change /veh RGS16 (11746705_a_at) / RFU VCAN (11755009_s_at) / Fold change /veh VCAN (11755009_s_at) / RFU RHOB (11743442_s_at) / Fold change /veh RHOB (11743442_s_at) / RFU RGS16 (11720943_a_at) / Fold change /veh RGS16 (11720943_a_at) / RFU RGS16 (11720944_at) / Fold change /veh RGS16 (11720944_at) / RFU, VPS4B / Fold change vs veh, VPS4B / RFU, CREB1 / Fold change vs veh, CREB1 / RFU, DNAJC13 / Fold change vs veh, DNAJC13 / RFU, GNAQ / Fold change vs veh, GNAQ / RFU, CDK5R1 / Fold change vs veh, CDK5R1 / RFU, ZRANB3 / Fold change vs veh, ZRANB3 / RFU, CUL4A / Fold change vs veh, CUL4A / RFU, CCNY / Fold change vs veh, CCNY / RFU, UFL1 / Fold change vs veh, UFL1 / RFU, COG3 / Fold change vs veh, COG3 / RFU, DIAPH2 / Fold change vs veh, DIAPH2 / RFU, SKA2 / Fold change vs veh, SKA2 / RFU, AFF3 / Fold change vs veh, AFF3 / RFU, LMF1 / Fold change vs veh, LMF1 / RFU, IPO11 / Fold change vs veh, IPO11 / RFU, DFFB / Fold change vs veh, DFFB / RFU, FOXP1 / Fold change vs veh, FOXP1 / RFU, CARD8 / Fold change vs veh, CARD8 / RFU, STRN3 / Fold change vs veh, STRN3 / RFU, ADK / Fold change vs veh, ADK / RFU, RASSF2 / Fold change vs veh, RASSF2 / RFU, WIPF1 / Fold change vs veh, WIPF1 / RFU, LARP1B / Fold change vs veh, LARP1B / RFU, RASA1 / Fold change vs veh, RASA1 / RFU, RB1 / Fold change vs veh, RB1 / RFU, PPFIA1 / Fold change vs veh, PPFIA1 / RFU, MAT2A / Fold change vs veh, MAT2A / RFU, CCT5 / Fold change vs veh, CCT5 / RFU, WDR92 / Fold change vs veh, WDR92 / RFU, CUX1 / Fold change vs veh, CUX1 / RFU, TTC7A / Fold change vs veh, TTC7A / RFU, TMEM135 / Fold change vs veh, TMEM135 / RFU, DEPTOR / Fold change vs veh, DEPTOR / RFU, CPM / Fold change vs veh, CPM / RFU, DNAJB6 / Fold change vs veh, DNAJB6 / RFU, CACNA2D3 / Fold change vs veh, CACNA2D3 / RFU, DTX4 / Fold change vs veh, DTX4 / RFU, TFCP2 / Fold change vs veh, TFCP2 / RFU, GMCL1 /// GMCL1P1 / Fold change vs veh, GMCL1 /// GMCL1P1 / RFU, AEBP2 / Fold change vs veh, AEBP2 / RFU, SNHG1 /// SNORD22 /// SNORD25 /// SNORD26 /// SNORD27 /// SNORD28 /// SNORD29 /// SNORD31 / Fold change vs veh, SNHG1 /// SNORD22 /// SNORD25 /// SNORD26 /// SNORD27 /// SNORD28 /// SNORD29 /// SNORD31 / Fold change (Aza/veh), C12orf56 (ProbeSet 11735607_a_at) / Fold change (ACY-1035/veh), C12orf56 (ProbeSet 11735607_a_at) / Fold change (Aza/veh), FGFR1OP (ProbeSet 11751329_s_at) / Fold change (ACY-1035/veh), FGFR1OP (ProbeSet 11751329_s_at) / Fold change (Aza/veh), VPS36 (ProbeSet 11739960_a_at) / Fold change (ACY-1035/veh), VPS36 (ProbeSet 11739960_a_at) / RFU SYPL1 (11715823_x_at) / Fold change /veh SYPL1 (11715823_x_at) / RFU IGFBP7 (11715501_s_at) / Fold change /veh IGFBP7 (11715501_s_at) / RFU REEP3 (11722064_at) / Fold change /veh REEP3 (11722064_at) / RFU IGLL1 (11728026_x_at) / Fold change /veh IGLL1 (11728026_x_at): dose or concentration left out as unconfirmed
Conditions: ProbeSet 11741070_a_at; LIST B

SMILES: Nc1ccc(-c2cccs2)cc1NC(=O)c1ccc2c(c1)cc(C1CC1)n2CCN1CCOCC1 [ACY-1035]
- RFU, ZNF146: 2312.59 RFU
